This series in a line: Solubility in water. In kind it is physicochemical.

The structures appear in SMILES notation.

Take `CC1=C(/C=C/C(C)=C/C=C/C(C)=C\C(=O)O)C(C)(C)CCC1` [cis-retinoic acid]: the water solubility entry is “extremely water insoluble”.
